Data: the METLIN SMRT retention time set (Domingo-Almenara et al. 2019)

Assay: gradient 5% acetonitrile 3 min, to 50% in 2 min, to 85% in 15 min, held 3 min, 100 µL/min
Conditions: column: Zorbax Extend-C18 2.1 x 50 mm; eluents: water / acetonitrile, 0.1% formic acid
In short: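 Each retention time is based on an adduct peak selected computationally and verified by manual inspection. Measurements used HPLC–quadrupole time-of-flight mass spectrometry in positive and negative ionization mode on mixtures of ~100 pure standards. Chromatography ran on a Zorbax Extend-C18 column (2.1 × 50 mm, 1.8 μm) at 100 μL/min with water and acetonitrile, each containing 0.1% formic acid, and dead and dwell volumes of 40 μL and 900 μL.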

| RP-LC retention time | Structure (SMILES) |
| --- | --- |
| 767 s | O=C(Cn1c(=O)nc(NC2CCCC2)c2ccccc21)Nc1cc(F)cc(F)c1 |
| 821 s | Cc1nc(N2CCN(c3ccccn3)CC2)c2c(C)c(C(=O)Nc3ccc(C)c(Cl)c3)sc2n1 |
| 629 s | CNC(=O)N1CCCC1c1nc(C2CN(C(=O)c3cccn3C)C2)no1 (stereo not given) |
| 740 s | O=C(O)c1cc2cc(Cl)ccc2[nH]1 |
| 640 s | CCNC(=O)C1CCCN(c2nc3ncn(CC(=O)NCc4ccc5c(c4)OCO5)c(=O)c3s2)C1 (stereo not given) |
| 1080 s | CCOC(=O)Cc1c(C)nc2c(-c3ccccc3)c(C)nn2c1C |
| 803 s | COC(=O)c1c(NCc2cccc(OC)c2)c2cccc(Cl)c2[nH]c1=O |
| 956 s | Cc1nc(C)c(C(=O)Nc2nc(-c3ccc(F)cc3)c(C)s2)s1 |
| 573 s | CS(=O)(=O)N1CCCc2cc(C(=O)NCCN3CCOCC3)ccc21 |
| 602 s | CC(C)CN1CCN(C(=O)CN2CCN(Cc3ccc(F)cc3)C2=O)CC1 |
| 651 s | CC(C)NC(=O)C1Cn2cccc2C(=O)N1C (stereo not given) |
| 933 s | O=C(NCc1cccc(Cl)c1)C1=C2CCCN2c2ccc(F)cc2S1(=O)=O |
| 900 s | COc1ccc2nc(C(=O)N3CCN(c4ccc(Cl)cc4)CC3)cn2n1 |
| 652 s | COc1ccccc1-c1nc(C2CCN(C(=O)c3cccc4[nH]ccc34)CC2)no1 |
| 843 s | COC(=O)c1c(NC(C)c2cccc(OC)c2)c2cccc(Cl)c2[nH]c1=O (stereo not given) |
| 1080 s | O=C(NCCc1ccccc1)Nc1ccc(-c2nc(-c3ccccc3)co2)cc1 |
| 631 s | CCS(=O)(=O)N1CCC(Cc2nncn2-c2ccccc2)C1 (stereo not given) |
| 912 s | O=C(Cn1ccc2ccc(N3CCOCC3)nc21)NCc1ccc(F)cc1Cl |
| 920 s | COc1cc(NC(=O)N2CCC3(CC2)Nc2ccccc2-n2cccc23)cc(OC)c1OC |
| 786 s | O=C(Nc1ccccc1F)N1CC(c2nc(CCOCC3CC3)no2)C1 |
| 1010 s | O=S(=O)(Cc1ccc(-c2nc(-c3ccccc3)no2)o1)c1ccccc1 |
| 595 s | CCN(CC)CCCC(C)Nc1nc(/C=C/c2cc(OC)c(OC)cc2Cl)nc2cc(Cl)ccc12 (stereo not given) |
| 783 s | C=CCc1cccc(/C=N/NC(=O)C[NH+]2CCN(Cc3ccccc3)CC2)c1[O-] |

| RP-LC retention time | Structure (SMILES) |
| --- | --- |
| 1020 s | COc1ccc(-c2ncc3c(n2)CCN(C(=O)c2cccc(Br)c2)C3)cc1 |
| 588 s | NC(=O)C1(N2CCCCC2)CCN(c2ncc(S(=O)(=O)c3ccccc3)c(N)n2)CC1 |
| 766 s | Cc1ccc(CNC(=O)CN2CCN(Cc3ccc(F)cc3)C2=O)o1 |
| 837 s | C=CCN1C(=O)COc2ccc(-c3csc(NC(=O)CC)n3)cc21 |
| 744 s | C=CCn1c(SCC#CCO)nc2ccccc2c1=O |
| 778 s | Cn1ccc2ccn(CC(=O)NCc3ccccc3Br)c(=O)c21 |
| 657 s | Fc1ccc(OCc2nc(-c3ccc4c(c3)ncn4CCN3CCCC3)no2)cc1 |
| 763 s | Cc1ccc(-c2nc3ccc(C)cn3c2NC(=O)c2ccc(Cl)cc2)cc1 |
| 719 s | CN(C)C(=O)c1ccc2c(c1)nnn2CCNC(=O)Nc1cc(Cl)ccc1Cl |
| 890 s | CCCn1cc(S(=O)(=O)Nc2cc(F)ccc2F)c2cccnc21 |
| 506 s | O=C(NCc1ccccn1)C1CCc2sc(C(=O)N3CCCCC3)cc2C1 (stereo not given) |
| 732 s | Cc1nc(-c2cnccn2)nc2c1CCC(=O)N2Cc1ccc(F)cc1 |
| 681 s | O=C(Cc1ccc(NC(=O)c2ccc(F)cc2Cl)cc1)NC1CC1 |
| 636 s | CCn1cnc(S(=O)(=O)N2CCC(C(=O)Nc3nccs3)CC2)c1 |
| 1200 s | CCOC(=O)c1noc2nc(C)nc(Nc3cccc(Cl)c3)c12 |
| 917 s | Cc1cc(C)n(Cc2nc(-c3ccc(NC(=O)Cc4ccc(F)cc4)cc3)oc2C)n1 |
| 778 s | O=C(CSc1nnc2sc3ccccc3n12)c1ccc(F)cc1 |
| 606 s | O=C(Nc1ccc2c(c1)OCCO2)c1cn2c(n1)COCC2 |
| 1000 s | CCOc1ccccc1NC(=O)N1CCc2nc(-c3ccc(OC)cc3)ncc2C1 |
| 673 s | CCC(C)NC(=O)C1CCN(Cc2cn(C)c3ccc(Cl)cc23)CC1 (stereo not given) |
| 798 s | Cc1ccc(C(=O)NC2CCN(c3cc(-c4cccs4)[nH]n3)C2)cc1F (stereo not given) |
| 842 s | Cc1ccc(Cl)cc1NC(=O)C1CCCN1S(=O)(=O)c1cc2c(cc1C)NC(=O)CO2 (stereo not given) |

More lines, now with the values behind:

| Structure (SMILES) | RP-LC retention time |
| --- | --- |
| COc1ccccc1NCC(O)Cn1ccc2ccccc21 (stereo not given) | 871 s |
| CCS(=O)(=O)Nc1cccc(-c2nc3cccnc3s2)c1 | 720 s |
| Cc1ccc(/C=C/c2nc(-c3ccc4oc(C)nc4c3)no2)o1 | 1130 s |
| Cc1ccccc1S(=O)(=O)N1CCC(CCC(=O)NC2CCS(=O)(=O)C2)CC1 (stereo not given) | 726 s |
| COc1ccc(-c2noc(CN3C(=O)COc4cc(C(C)(C)C)ccc43)n2)cc1OC | 1110 s |
| O=C1Cc2c(-c3ccccc3)cc(-c3cccc(Cl)c3)nc2-c2ccccc2N1 | 1260 s |
| O=C(Cn1cnc2c(nc3n2CCCCC3)c1=O)N1CCN(Cc2ccc3c(c2)OCO3)CC1 | 588 s |
| CCSc1nnc(-c2nn(C)c3c2CN(C(=O)c2cccc(N(C)C)c2)CC3)n1C | 682 s |
| CCCCC(=O)Nc1nc(-c2ccc3c(c2)NC(=O)C(C)O3)cs1 (stereo not given) | 863 s |
| CCc1ccccc1NC(=O)C(C)n1cnc2nc(N3CCCCC3)ncc2c1=O (stereo not given) | 882 s |
| COc1ccc(N2CC(c3noc(-c4ccc(F)cc4)n3)CC2=O)cc1 (stereo not given) | 926 s |
| CCOC(=O)C1CCN(C(=O)C2c3ccccc3C(=O)N(C)C2c2cccs2)CC1 (stereo not given) | 810 s |
| CC(=O)Nc1ccc(-c2noc(C3CCN(C(=O)CCc4c[nH]c5ccccc45)CC3)n2)cc1 | 786 s |
| CCc1ccc(N2C(=O)CN(S(C)(=O)=O)CC2(C)C(=O)NCc2ccc(C)cc2)cc1 (stereo not given) | 898 s |
| COc1ccccc1N1CCN(C(=O)c2nnc(-c3ccc(S(=O)(=O)N4CCCC4)cc3)o2)CC1 | 972 s |
| COC(=O)c1ccc(C(=O)N(Cc2ccsc2)Cc2ccco2)cc1 | 832 s |
| O=C(NC1CC1)[C@@H]1C[C@H](Oc2cccnc2)CN1C(=O)C1CC1 | 528 s |
| COc1ccc(CC(=O)Nc2nnc(C3CC(=O)N(c4ccc(Cl)cc4)C3)o2)cc1 (stereo not given) | 761 s |
| O=c1c2c([nH]c3ccc(Cl)cc13)CCN(Cc1ccc(F)cc1)C2 | 620 s |
| CCCCNC(=O)COc1c(C)cc(Br)cc1C | 1000 s |
| Cc1cccc(NC(=O)Cn2nc3n(c2=O)CCCCC3)c1C | 675 s |
| O=C(NCc1ccc(F)cc1)c1ccc(-n2nc(N3CCCC3)ccc2=O)cc1 | 810 s |
| Cc1oc(C2CCN(C(=O)Nc3ccc(F)cc3)CC2)nc1C(=O)N1CCOCC1 | 686 s |

| Structure (SMILES) | RP-LC retention time |
| --- | --- |
| Cc1ccc(S(=O)(=O)N2CCN(C(=O)c3ccccc3Cl)CC2)cc1C | 669 s |
| CN1C(=O)c2cc(C(=O)NCCCN3CCCC3)nn2CC1(C)C(=O)NCc1ccc(F)cc1 (stereo not given) | 585 s |
| COc1cccc(CN2N=C(C(=O)N3CCOCC3)S(=O)(=O)c3ccc(Cl)cc32)c1 | 887 s |
| Cc1oc(-c2[nH]ncc2C(=O)N2CCOCC2)cc1S(=O)(=O)NCC(C)C | 645 s |
| O=C(NC1CCCCCC1)c1ccc(-c2ccsc2)nc1 | 943 s |
| CCN(Cc1ccc(OC)cc1)Cc1cc(=O)n2ccccc2n1 | 585 s |
| Cc1oc2nc3c(c(NC(=O)CN4CCCC4=O)c2c1C)CCCC3 | 687 s |
| Cc1ccc(S(=O)(=O)CC(=O)Nc2nc(-c3ccc(F)cc3)cs2)cc1 | 988 s |
| COc1ccc(-c2ccc(SCC(=O)Nc3cccc([N+](=O)[O-])c3)nn2)cc1OC | 793 s |
| O=S(=O)(c1ccc(Cl)cc1)N1CCC(c2noc(-c3ccccc3)n2)CC1 | 1170 s |
| COc1cc(=O)n2c(c1C(=O)Nc1cccc(Br)c1)CCCC2 | 760 s |
| Cn1c(=O)n(CCN2CCCCC2)c(=O)c2c1nc1n2CCCN1c1ccc(Br)cc1 | 678 s |
| COc1ccc(C(=O)Nc2nc3c(s2)CCc2cc(OC)ccc2-3)cc1 | 1080 s |
| O=C(NCc1ccc2c(c1)OCO2)C(=O)c1cn(CC(=O)N2CCOCC2)c2ccccc12 | 804 s |
| CCc1noc([C@@H]2CC(F)(F)CN2C(=O)c2ccoc2)n1 | 757 s |
| CCc1nc2c(NC(=O)c3ccc(OC)cc3)cccn2n1 | 819 s |
| CCn1cc(C)c(C(=O)O)c1CC(=O)N1CCC(N2CCCCC2)CC1 | 587 s |
| Cc1ccc(C)c(N2CCN(C(=O)CN(C)S(=O)(=O)c3ccc4c(c3)CCCC(=O)N4)CC2)c1 | 908 s |
| O=C(CCC(=O)N1CCN(c2ccc(=O)n(-c3ccccc3)n2)CC1)N1CCOCC1 | 612 s |
| COc1ccc(C2(C(=O)NCc3ccc4c(c3)ncn4C(C)C)CC2)cc1 | 678 s |
| CCOc1cccc(C2c3[nH]c4ccccc4c3CCN2C(=O)c2cccs2)c1 (stereo not given) | 1110 s |
| COc1cccc(Oc2nccnc2N2CCC(C(=O)NCCC(C)C)CC2)c1 | 861 s |
